Test systems include NCI-H226 lung; T-47D breast; MOLT-4 leukemia; SK-MEL-5 melanoma; SF-295 CNS; 786-0 renal; SF-268 CNS; RPMI-8226 leukemia; OVCAR-4 ovarian; OVCAR-5 ovarian.
Test in all cases: inhibition of tumour cell growth, NCI panel, 48 h

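All cell lines were grown in 96-well plates and treated with compound for 48 hours. GI50 marks 50% less growth. The concentration for full growth arrest is given as TGI.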

As to `Cc1nn(C)c2cc(N(C)c3ccnc(Nc4cccc(S(N)(=O)=O)c4)n3)ccc12`, the GI50 with NCI-H226 lung is 5.16 µM; in the test on T-47D breast, more than 7.8 µM; with MOLT-4 leukemia it was 6.62 µM; in the test on SK-MEL-5 melanoma it was 3.62 µM; with SF-295 CNS, 10.1 µM; in the test on 786-0 renal it was 9.36 µM. The GI50 is 6.39 µM in the test with SF-268 CNS, 6.82 µM in the test on RPMI-8226 leukemia, 6.15 µM with OVCAR-4 ovarian and 5.83 µM in the test with OVCAR-5 ovarian. Besides, the TGI is more than 21.3 µM with NCI-H226 lung; more than 21.1 µM with T-47D breast; more than 23.8 µM with MOLT-4 leukemia; 8.4 µM in the test on SK-MEL-5 melanoma; more than 25 µM in the test with SF-295 CNS; more than 25 µM in the test with 786-0 renal. Moreover, the TGI in the test with SF-268 CNS, in the test on RPMI-8226 leukemia, with OVCAR-4 ovarian and with OVCAR-5 ovarian was more than 25 µM in each case.

For `N#CSc1ccc(S(N)(=O)=O)cc1`, the TGI in the test with NCI-H226 lung is more than 100 µM; with T-47D breast, more than 100 µM; with MOLT-4 leukemia it was 29.6 µM; in the test on SK-MEL-5 melanoma, more than 100 µM; with SF-295 CNS it was more than 100 µM; with 786-0 renal it was 65.2 µM. Moreover, the TGI in the test with SF-268 CNS was more than 100 µM; with RPMI-8226 leukemia, 61.5 µM; in the test with OVCAR-4 ovarian, 93.1 µM; in the test with OVCAR-5 ovarian it was more than 100 µM.

As to `CC[CH2][Sn]([CH2]CC)([O]C(=O)Cc1ccc(F)cc1)[O][Sn]([CH2]CC)([CH2]CC)[O]C(=O)Cc1ccc(F)cc1`, the GI50 in the test on NCI-H226 lung is 0.243 µM; in the test on T-47D breast, 0.0296 µM; in the test with MOLT-4 leukemia, 0.0614 µM; in the test on SK-MEL-5 melanoma, 0.472 µM; in the test with SF-295 CNS, 0.587 µM; in the test with 786-0 renal, 0.133 µM. Moreover, the GI50 is 0.13 µM in the test on SF-268 CNS, 0.0382 µM in the test on RPMI-8226 leukemia, 0.276 µM in the test on OVCAR-4 ovarian and 1.44 µM with OVCAR-5 ovarian. Moreover, the TGI in the test on NCI-H226 lung was found to be 0.813 µM; in the test on T-47D breast it was 0.211 µM; in the test on MOLT-4 leukemia, 9.15 µM; in the test with SK-MEL-5 melanoma it was 1.47 µM; in the test with SF-295 CNS, 1.57 µM; in the test with 786-0 renal, 0.361 µM. The figures for the TGI in the test with SF-268 CNS, in the test with OVCAR-4 ovarian and in the test on OVCAR-5 ovarian were 0.606 µM, 1.23 µM and 2.84 µM, respectively.

As to `COc1ccc(C2CC(=O)c3c(O)c(OC)c(OC)c(OC)c3O2)cc1O` (configuration not stated), the GI50 in the test with NCI-H226 lung is 14.1 µM; in the test on T-47D breast, 19.2 µM; with MOLT-4 leukemia it was 0.105 µM; in the test with SK-MEL-5 melanoma it was 0.219 µM; in the test with SF-295 CNS, 0.374 µM; in the test with 786-0 renal it was 1.64 µM. The GI50 with SF-268 CNS was 0.407 µM; with RPMI-8226 leukemia it was 0.286 µM; in the test with OVCAR-4 ovarian it was 3.78 µM; in the test with OVCAR-5 ovarian, more than 100 µM. In addition, the TGI with NCI-H226 lung is more than 100 µM; in the test with T-47D breast, 77.9 µM; in the test with MOLT-4 leukemia, more than 100 µM; with SK-MEL-5 melanoma, 6.87 µM; in the test on SF-295 CNS it was more than 100 µM; in the test on 786-0 renal, more than 100 µM. The TGI in the test on SF-268 CNS is more than 100 µM; in the test on RPMI-8226 leukemia it was more than 77.5 µM; in the test on OVCAR-4 ovarian it was more than 100 µM; in the test on OVCAR-5 ovarian, more than 100 µM.

With `C=C(CN(C)C)C(=O)c1ccc(Oc2ccccc2)cc1`, the TGI with NCI-H226 lung is 34.3 µM; with T-47D breast, 13.7 µM; in the test with MOLT-4 leukemia it was 2.05 µM; in the test on SK-MEL-5 melanoma, 19.8 µM; in the test on SF-295 CNS it was 38.3 µM; in the test with 786-0 renal, 4.99 µM. The TGI with SF-268 CNS was 32.5 µM; in the test with RPMI-8226 leukemia it was more than 21.8 µM; in the test with OVCAR-4 ovarian, 20.9 µM; in the test on OVCAR-5 ovarian, 18.6 µM.

With `Cc1cc2nc(C(Cl)Cl)nc(-c3ccccc3)n2n1`, the GI50 in the test on NCI-H226 lung is more than 100 µM; in the test with T-47D breast, 4 µM; in the test with MOLT-4 leukemia it was 5.67 µM; with SK-MEL-5 melanoma it was 39.3 µM; in the test on SF-295 CNS it was 3.48 µM; with 786-0 renal it was 52.9 µM. Also, the GI50 is 4.76 µM with SF-268 CNS, 5.04 µM in the test with RPMI-8226 leukemia, 2.19 µM with OVCAR-4 ovarian and 3.3 µM in the test on OVCAR-5 ovarian. The TGI with NCI-H226 lung was more than 100 µM; in the test with T-47D breast it was 89.1 µM; with MOLT-4 leukemia, more than 100 µM; in the test with SK-MEL-5 melanoma, more than 100 µM; with SF-295 CNS, 15.9 µM; in the test on 786-0 renal, more than 100 µM. Also, the TGI with SF-268 CNS stood at 39.4 µM; in the test on RPMI-8226 leukemia, 44.3 µM; with OVCAR-4 ovarian, 7.51 µM; in the test on OVCAR-5 ovarian, 17.1 µM.

Regarding `CC#CC(=O)N1CC[C@@H](n2c(=O)n(-c3ccc(Oc4ccccc4)cc3)c3c(N)ncnc32)C1`, the GI50 is 23.1 µM with NCI-H226 lung; 12.2 µM in the test on T-47D breast; 10.2 µM with MOLT-4 leukemia; 16.9 µM with SK-MEL-5 melanoma; 29.5 µM in the test with SF-295 CNS; 21.5 µM with 786-0 renal. Also, the GI50 was 30.3 µM in the test on SF-268 CNS, 14.7 µM with RPMI-8226 leukemia, 20.4 µM with OVCAR-4 ovarian and 46.6 µM in the test with OVCAR-5 ovarian. For the same compound, the TGI with NCI-H226 lung is more than 100 µM; in the test with T-47D breast it was 62.9 µM; in the test on MOLT-4 leukemia it was 62.1 µM; in the test with SK-MEL-5 melanoma it was 38.8 µM; with SF-295 CNS it was more than 100 µM; with 786-0 renal it was more than 100 µM. In addition, the TGI is more than 100 µM in the test with SF-268 CNS, 66.3 µM in the test on RPMI-8226 leukemia, more than 100 µM with OVCAR-4 ovarian and more than 100 µM in the test on OVCAR-5 ovarian.

Consider `Cc1cc(N(CCOS(C)(=O)=O)CCOS(C)(=O)=O)ccc1C=Nc1ccc(-c2csc(-c3ccc(Br)cc3)n2)cc1`, for which the TGI was 62.3 µM in the test on NCI-H226 lung; 80.1 µM in the test on T-47D breast; more than 69.5 µM in the test with MOLT-4 leukemia; 34.1 µM with SK-MEL-5 melanoma; 50.5 µM with SF-295 CNS; 20.7 µM with 786-0 renal. Also, the TGI is more than 80.2 µM in the test on SF-268 CNS, more than 100 µM with RPMI-8226 leukemia, 84.9 µM in the test on OVCAR-4 ovarian and 54.9 µM in the test with OVCAR-5 ovarian.

For the compound `CC1=CC(=O)c2ccc(C)cc2C1=O`, the TGI in the test on NCI-H226 lung worked out at 39.5 µM; in the test on T-47D breast it was 15 µM; in the test with MOLT-4 leukemia it was 6.24 µM; in the test on SK-MEL-5 melanoma, 15 µM; in the test on SF-295 CNS, 31.6 µM; in the test with 786-0 renal it was 44.3 µM. Further, the TGI is 38.4 µM with SF-268 CNS, 6.36 µM with RPMI-8226 leukemia, 52.5 µM in the test with OVCAR-4 ovarian and 35.4 µM in the test on OVCAR-5 ovarian.

Regarding `Nc1ccc(-c2ccc(-c3nc4cc(Cl)c(Cl)cc4[nH]3)cc2)cc1`, the GI50 with NCI-H226 lung was 4.07 µM; with T-47D breast it was 0.275 µM; in the test on MOLT-4 leukemia, 1.66 µM; with SK-MEL-5 melanoma, 1.42 µM; in the test with SF-295 CNS, 0.419 µM; in the test with 786-0 renal, 2.05 µM. The GI50 is 1.85 µM in the test on RPMI-8226 leukemia, 3.01 µM in the test on OVCAR-4 ovarian and 26.2 µM with OVCAR-5 ovarian. In addition, the TGI in the test on NCI-H226 lung is more than 41.7 µM; with T-47D breast it was more than 100 µM; in the test with MOLT-4 leukemia, more than 85 µM; in the test with SK-MEL-5 melanoma, more than 100 µM; in the test on 786-0 renal it was 18.9 µM; with SF-268 CNS it was 9.24 µM. For the same compound, the TGI is 38.4 µM in the test on RPMI-8226 leukemia, more than 100 µM in the test with OVCAR-4 ovarian and more than 100 µM in the test with OVCAR-5 ovarian.

Regarding `O=C(O)CCSC(=S)Nc1ccc([N+](=O)[O-])cc1`, the TGI in the test with NCI-H226 lung is more than 100 µM; in the test with T-47D breast, more than 100 µM; in the test on MOLT-4 leukemia it was more than 68 µM; in the test with SK-MEL-5 melanoma, 34.5 µM; in the test on SF-295 CNS it was more than 100 µM; with 786-0 renal, more than 100 µM. The TGI with SF-268 CNS is more than 100 µM; in the test with RPMI-8226 leukemia it was more than 77.2 µM; in the test on OVCAR-4 ovarian, more than 100 µM; in the test on OVCAR-5 ovarian, more than 100 µM.

Consider `CCN1CCN(c2ccc(Nc3ncc4ccc5ncn(C(C)C)c5c4n3)nc2)CC1`, for which the GI50 is 0.148 µM in the test with NCI-H226 lung; 0.199 µM in the test with T-47D breast; 0.0416 µM in the test with MOLT-4 leukemia; 0.153 µM with SK-MEL-5 melanoma; 0.224 µM with SF-295 CNS; 0.102 µM in the test on 786-0 renal. Also, the GI50 in the test with SF-268 CNS is 0.117 µM; in the test on RPMI-8226 leukemia, less than 0.0324 µM; in the test on OVCAR-4 ovarian, 0.273 µM; with OVCAR-5 ovarian, 0.037 µM. The TGI amounted to 2.67 µM in the test on NCI-H226 lung; 7.3 µM in the test on T-47D breast; 1.91 µM with MOLT-4 leukemia; 0.405 µM in the test with SK-MEL-5 melanoma; 0.794 µM in the test on SF-295 CNS; 1.69 µM in the test on 786-0 renal. Moreover, the TGI in the test with SF-268 CNS turned out to be 0.47 µM; in the test on RPMI-8226 leukemia, 1.45 µM; with OVCAR-4 ovarian it was 0.885 µM; in the test with OVCAR-5 ovarian it was 21.5 µM.

Regarding `COc1cc2c3c(n(CCCN4CCCC(O)C4)c(=O)c2cc1OC)-c1cc2c(cc1C3=O)OCO2` (configuration not stated), the GI50 with NCI-H226 lung was 1.42 µM; in the test with T-47D breast, 1.16 µM; in the test with MOLT-4 leukemia it was less than 0.005 µM; in the test with SK-MEL-5 melanoma it was 0.318 µM; in the test with SF-295 CNS, less than 0.005 µM; in the test on 786-0 renal, 0.0277 µM. The GI50 with SF-268 CNS is 0.593 µM; in the test with RPMI-8226 leukemia, 0.0961 µM; with OVCAR-4 ovarian it was 1.07 µM; in the test on OVCAR-5 ovarian it was 0.931 µM. The TGI in the test with NCI-H226 lung was 4.31 µM; in the test on T-47D breast, 3.2 µM; with MOLT-4 leukemia it was 0.678 µM; in the test with SK-MEL-5 melanoma it was 20.6 µM; in the test with SF-295 CNS, 2.65 µM; in the test with 786-0 renal it was 0.115 µM. Further, the TGI in the test with SF-268 CNS amounted to 1.94 µM; with RPMI-8226 leukemia it was 0.447 µM; in the test with OVCAR-4 ovarian, 2.68 µM; in the test with OVCAR-5 ovarian, 1.71 µM.

The values are drawn from PubChem BioAssay (NCI).
